The values that follow come from patent US11649222B2, “Compounds” (UNIVERSITETET I OSLO, priority 2016, dated 2023).

In series [1] the test system is K. pneumoniae K66-45 (NDM-1). Description: Microbroth dilution MIC of carbapenem with/without inhibitor. The class given is cell-based. A digest of the protocol:
(§1)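 Broth microdilution in MH broth with 2-fold compound/antibiotic dilution series. Inoculum from a 0.5 McFarland suspension diluted 1:100, final 3-7×10^5 CFU/ml confirmed by colony count. Strains pre-grown overnight at 37° C, ampicillin 100 mg/L plates for ESBL/carbapenemase producers.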
(In general: Broth dilution looks for growth in wells or tubes with falling amounts of substance.)

Series [2] deals with P. aeruginosa K34-7 (VIM-2). Described as above. The note with it: Example 26 25 mg/L. Format: cell-based. A digest of the protocol: as §1
Series [3] concerns K. pneumoniae 50732159 (No MBL). Briefly: Microbroth dilution MIC of meropenem with/without inhibitor. The class given is cell-based. As to conditions: inhibitor 25 mg/L. How it is done:
(§2) • Plate bacterial strain(s) on appropriate media: • Gram-negative bacteria with ESBLs or carbapenemases: green agar plates with 100 mg/L ampicillin • Gram-negative bacteria without β-lactamases: green agar plates • Gram-positive bacteria (Staphylococci and Enterococci): blood agar plates • Incubate o.n. at 37° C. […] (Should be used within 15 min of preparation). • Dilute the 0.5 McFarland suspension 1:100 into MH broth. […] Plate 10 μl of the dilution on MH agar plates (×2). Incubate o.n. at 37° C., count the colonies and calculate the final CFU/ml inoculum in the plate by multiplying the average number of colonies with 10000 and divide by 2. The final inoculum should be between 3-7×10^5 CFU/ml. • Add 50 μl of the prepared bacterial suspension to each well in the microtiter plate except negative growth control. Preparation of Compounds/Antibiotics • Calculate the desired concentration-range and volume of the compounds/antibiotics in the assay. […] Dilute the stock solution in MH broth. Make subsequent 2-fold dilutions in MH broth of the desired concentrations if a concentration range is to be tested (remember the extra dilution factor in the assay plate). Always include extra volume for pipetting. Take into consideration stock solutions that are made in buffers that have an effect on bacterial growth (e.g. DMSO).

The subject of series [4] is P. aeruginosa 50692172 (NDM-1). The series is described as above. The class given is cell-based. The note with it: inhibitor 25 mg/L. How it is done:
as §2

The subject of series [5] is P. aeruginosa 50808021 (No MBL). The series is described as above. The class given is cell-based. The note with it: inhibitor 25 mg/L. How it is done:
as §2

The test system of series [6] is resistant gram-negative MBL-based bacteria. Description: MICx: adjuvant concentration giving carbapenem MIC ≤ 2 mg/L. The class given is cell-based. As to conditions: lowest concentration of compound X that results in a MIC value of ≤ 2 mg/L for carbapenem antibiotics. A digest of the protocol:
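Broth microdilution in MH broth; 0.5 McFarland suspension diluted 1:100 to a final inoculum of 3-7×10^5 CFU/ml. Compounds tested as 2-fold dilutions in MH broth. Carbapenemase/ESBL strains were pre-grown overnight at 37 °C on agar containing 100 mg/L ampicillin.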

For series [7], the system named is K. pneumoniae K66-45. Format: cell-based. On the procedure:
After plating and grown overnight at 37° C., only single colonies, ignoring any touching the edges of the plate, were counted.
10^9 CFU K66-45 (Mueller-Hinton broth, no selection) was plated and grown overnight, 37° C. Only single colonies, ignoring any touching the edges of the plate, were counted.

Series [8] has as its target VIM-2 (Escherichia coli, UniProt Q5U7L7). Format: biochemical. On the procedure:
The eluent used was Chelex-treated HEPES 50 mM buffer, pH 7.5. […] In all experiments, 16 aliquots of 250 μL were taken from the PD-10 column runsout and enzyme activity was analysed. Enzyme activity was measured by adding Nitrocefin as a reporter substrate (final concentration of 50 μM).
To investigate if more extreme time-dependent and concentration-dependent conditions could restore enzyme activity, aliquots having final concentrations of 30 nM column-treated enzyme and 1000 μM Zn^2+ on ice and at room temperature over prolonged time.

The subject of series [9] is strains producing Klebsiella pneumoniae carbapenemases (KPC). Description: Adjuvant activity with a carbapenem against KPC-producing strains. The class given is cell-based.
The subject of series [10] is K. pneumoniae K66-45 and P. aeruginosa K34-7. Description: Microbroth dilution MIC, carbapenem + inhibitor, two resistant clinical isolates. Format: cell-based. The note with it: Example 26 25 mg/L, three batches; meropenem and doripenem. How it is done: (§3) • Plate bacterial strain(s) on appropriate media: • Gram-negative bacteria with ESBLs or carbapenemases: green agar plates with 100 mg/L ampicillin • Gram-negative bacteria without β-lactamases: green agar plates • Gram-positive bacteria (Staphylococci and Enterococci): blood agar plates • Incubate o.n. at 37° C. Day 2: Prepare the Bacterial Inoculum: • Prepare a 0.5 McFarland suspension of bacteria in 0.85% NaCl. (Should be used within 15 min of preparation). • Dilute the 0.5 McFarland suspension 1:100 into MH broth. Check the inoculum by diluting the prepared bacterial suspension 1:100 (10 μl bacterial suspension+990 μl 0.85% NaCl). Plate 10 μl of the dilution on MH agar plates (×2). Incubate o.n. at 37° C., count the colonies and calculate the final CFU/ml inoculum in the plate by multiplying the average number of colonies with 10000 and divide by 2. The final inoculum should be between 3-7×10^5 CFU/ml. • Add 50 μl of the prepared bacterial suspension to each well in the microtiter plate except negative growth control. Preparation of Compounds/Antibiotics • Calculate the desired concentration-range and volume of the compounds/antibiotics in the assay. […] Dilute the stock solution in MH broth. Make subsequent 2-fold dilutions in MH broth of the desired concentrations if a concentration range is to be tested (remember the extra dilution factor in the assay plate). Always include extra volume for pipetting. Take into consideration stock solutions that are made in buffers that have an effect on bacterial growth (e.g. DMSO).

Series [11] concerns meropenem-resistant K. pneumonia and E. coli. Briefly: Checkerboard MIC, all MDR isolates. The note with it: for some of the strains. The class given is cell-based. How it is done: A checkerboard MIC assay was using the broth dilution method according to CLSI guidelines. […] Dilutions to 4 mg/ml was performed by adding+4.75 ml sterile saline to 0.25 ml of the stock solution, and dilutions to 512 μg/ml was performed by adding 10.9 ml MH-broth to the 4 mg/ml solution. Inoculums of bacterial strains as described in Table 4 were prepared by suspending fresh overnight colonies from 5% horse blood agar were to a turbidity of 0.5 McFarland and further diluted to 1×10^6 CFU/ml in MH-broth. Aliquots of 50 μl of MH-broth were added to each well of polystyrene microtiter plates. […] The plates were incubated at 35° C., 16-20 hours.

In series [12] the test system is human serum albumin and α1-acid glycoprotein (AGP). The note with it: 500 μM Example 26; HSA and AGP 24:1 up to 140 μM.
Procedure: Enzymes in the kit are immobilized at a solid phase. […] Buffer without inhibitor was included as a control. After incubation, the suspensions were centrifuged and diluted 1:10 in 50 mM HEPES buffer pH 7.5 supplemented with 1 μM zinc^2+ and VIM-2 (final concentration 1 nM).
For series [13], the system named is E. coli 50639799 (VIM-1). Description: Microbroth dilution MIC of meropenem with/without inhibitor. The class given is cell-based. How it is done: as §3
(§4) This experimental design was used for the results in Tables 2-6 below.

For series [14], the system named is E. coli K71-77 (NDM-1). The series is described as above. The class given is cell-based. On the procedure: as §3, §4
The test system of series [15] is K. pneumoniae A3-81 (VIM-1). The series is described as above. The class given is cell-based. On the procedure: as §3, §4

Several values for one entry are separate records, joined by “and”; a condition that tells them apart may be missing. Equal entries are not always repeated. Entries after “also recorded” stand apart in the source; their conditions may differ. Where two headings read alike, the source gives them in different places. Some results are limits rather than exact numbers.

One may read the MIC as the lowest concentration found to suppress growth. Take `CN(C[C@H](O)[C@@H](O)[C@H](O)[C@H](O)CO)C(=O)c1ccc(CN(Cc2ccccn2)Cc2ccccn2)nc1` [Example 26, 6-((bis(pyridin-2-ylmethyl)amino)methyl)-N-methyl-N-((2S,3R,4R,5R)-2,3,4,5,6-pentahydroxyhexyl)nicotinamide]: the “MIC of doripenem (DOR) + Example 26” value in series [1] (Example 26 25 mg/L, K. pneumoniae K66-45 NDM-1) was 0.25 mg/L and 0.125 mg/L (2×); in series [2], 1 µg/mL. In addition, the MIC in [1] (Klebsiella pneumoniae, inhibitor 31.25 μM, 50 μM and 100 μM, K. pneumoniae K66-45, read-out: MIC of MEM in the presence of inhibitor) came to 0.125 µg/mL. The MIC of meropenem in series [1] (inhibitor 31.25 μM, K. pneumoniae K66-45 NDM-1) is reported as 0.125; in series [1] (inhibitor 50 μM, K. pneumoniae K66-45 NDM-1), 0.125. For the same molecule, the results for the “Meropenem activity in presence of inhibitor” value in [3], in series [4] and in [5] were 32 mg/L, 4 mg/L and over 64 mg/L, respectively. Also, the MICx in [6] was determined as 31 µM. In addition, the “Resistance/mutant frequency (number of colonies)” value is “n.c” in series [7] (Example 26 15 mg/L, 8 mg/L MEM); “n.c” in series [7] (Example 26 25 mg/L, 4 mg/L MEM); “n.c” in [7] (Example 26 25 mg/L, 8 mg/L MEM); “n.c” in series [7] (Example 26 50 mg/L, 4 mg/L MEM); “n.c” in series [7] (Example 26 50 mg/L, 8 mg/L MEM). Besides, the enzyme activity restored in series [8] (15 nM impaired enzyme spiked with ZnSO4 0-100 μM) is on record as 40%. In addition, in [8] (50 nM VIM-2 + 140 mg/L Example 26, 1 hour on ice, PD-10 eluate fraction 5), the residual enzyme activity is given as 33%. Moreover, the “irreversibility of VIM-2 inhibition” value in series [8] (purified VIM-2, PD-10 column) is listed as “irreversibly inhibits VIM-2; also recorded: irreversibly inhibited”. In addition, in series [9], the “adjuvant activity with a carbapenem against KPC-producing strains” value is “does not show activity”. For the same molecule, the “factor of potentiation of carbapenems” value in series [10] is reported as 32-256 times. In addition, the “amplification of the effect of meropenem” value in [11] is over 1000 times. For the same molecule, the “effect of protein binding on inhibition of VIM-2” value in [12] is recorded as “protein binding is not affecting the inhibitory activity”.

Turning to `C[C@@H](O)[C@H]1C(=O)N2C(C(=O)O)=C(S[C@@H]3CN[C@H](C(=O)N(C)C)C3)[C@H](C)[C@H]12` [meropenem, reference compound], the “Meropenem activity without inhibitor” value fell in the range of 8 to 32 mg/L in series [13], 1 to 8 mg/L in series [14] and 64 to 256 mg/L in [15].
